Test results from article PMC7571145, “Multistep Synthesis and In Vitro Anticancer Evaluation of 2-Pyrazolyl-Estradiol Derivatives, Pyrazolocoumarin-Estradiol Hybrids and Analogous Compounds” (Molecules, 2020).

Legend:
MRC-5 fibroblasts = assay: MTT cytotoxicity assay on non-cancerous MRC-5 fibroblasts; type: cell-based; conditions: 72 h; for primary growth inhibitory screen, cell viability, MRC-5 / effect on non-cancerous fibroblasts: 2.5 µM; for primary growth inhibitory screen, cell viability, MRC-5 / IC50: MTT; for primary growth inhibitory screen, cell viability, MRC-5: mean±SD, untreated control about 100; for effect on non-cancerous fibroblasts: based on the heat map; for IC50: Homo sapiens, MRC5, compounds 1-7 µM, mean ± SD, read-out: IC50 on MRC-5
Protocol: (§1) Cytotoxicity screens were performed to assess the in vitro anticancer activity of the synthesized A-ring-linked 2-pyrazoles of estradiol, the pyrazolocoumarin-estradiol hybrids, and their structurally simplified non-steroidal analogs on various cancerous cell lines such as MCF-7, PC-3, DU145, and HeLa and on non-cancerous MRC-5 fibroblasts. The 2-acetyl-phenol starting materials (4, 5, and 15) were also included for comparison. All compounds were applied in 2.5 µM concentration for 72 h. The obtained cell viability data were used to construct a heat map (Figure 2) in order to select compounds that exert cancer cell line-specific cytotoxicity. […] Furthermore, some compounds discriminated only DU145 cells and could eliminate these type of prostate cancer cells.
(§2) To understand structure-function relationships, we also included the structural analogs of the selected compounds, namely 7a (C-17 acetate of 8a), 8c (C-17 OH counterpart of 7c), and 9a (steroidal pair of 19a) into subsequent analyses. […] For this, compounds were applied on MCF-7, PC-3, DU145, and HeLa and on non-cancerous MRC-5 fibroblasts in various concentrations for 72 h or were treated with cisplatin at different concentrations. On the viability data, dose–response curves were fitted (Figure S1) and IC50 values were calculated accordingly (Table 3). In agreement with the primary cytotoxicity screen (Table S1), the obtained IC50 concentrations clearly indicated which compound was selectively effective on one or more cancer cell lines. […] Typically, acetylated steroidal pyrazoles were less favorable than deacetylated counterparts due to reduced cancer cell selectivity (7c, 10a).
(§3) To evaluate the in vitro pharmacological effects of the synthesized molecules, each compound was first dissolved in cell culture grade DMSO (Sigma) to a final concentration of 10 mM. Using MTT colorimetric assay, the cytotoxicity of these compounds was evaluated on cancerous (MCF-7, HeLa, DU145, PC-3) and non-cancerous (MRC-5) cell lines. Briefly, 5000 cells/well of each cell line were seeded in 96-well plates and were left to grow overnight in a 5% CO2 atmosphere at 37 °C. On the next day, cells were treated with each derivative separately, in case of the primary screen, or only with the selected compounds upon IC50 determination. Cells were incubated with the test compounds for 72 h in a 5% CO2 atmosphere at 37 °C. End point was measured by incubating cells for 1 h with 0.5 mg/mL of MTT reagent (Serva) dissolved in serum free culture medium. The formazan crystals formed by metabolically active cells were later dissolved in DMSO. Optical density of the obtained solutions was measured at 570 nm using a Synergy HTX plate reader. […] The analysis and conclusions were made based on three independent experiments. Normalized data were analyzed and the heat map was constructed using GraphPad Prism 7 software.

PC-3 cells = assay: MTT cytotoxicity assay on PC-3 prostate cancer cells; type: cell-based; conditions: for primary growth inhibitory screen, cell viability, PC-3: 2.5 µM, 72 h, mean±SD, untreated control about 100; for IC50: Homo sapiens, PC-3, 72 h, compounds 1-7 µM, mean ± SD, read-out: IC50 on PC-3
Protocol: as §1, §2, §3

DU145 cells = assay: MTT cytotoxicity assay on DU145 prostate cancer cells; type: cell-based; conditions: for primary growth inhibitory screen, cell viability, DU145: 2.5 µM, 72 h, mean±SD, untreated control about 100; for IC50: Homo sapiens, DU-145, 72 h, compounds 1-7 µM, mean ± SD, read-out: IC50 on DU145
Protocol: as §1, §2, §3

MCF-7 cells = assay: MTT cytotoxicity assay on MCF-7 cells; type: cell-based; conditions: for primary growth inhibitory screen, cell viability, MCF-7: 2.5 µM, 72 h, mean±SD, untreated control about 100; for IC50: Homo sapiens, MCF7, 72 h, compounds 1-7 µM, mean ± SD, read-out: IC50 on MCF-7
Protocol: as §1, §2, §3

HeLa cells = assay: MTT cytotoxicity assay on HeLa cells; type: cell-based; conditions: 72 h; for primary growth inhibitory screen, cell viability, HeLa: 2.5 µM, mean±SD, untreated control about 100; for IC50: Homo sapiens, HeLa, compounds 1-7 µM, mean ± SD, read-out: IC50 on HeLa
Protocol: as §1, §2, §3

Structure (SMILES) | melting point | primary growth inhibitory screen, cell viability, MRC-5 (MRC-5 fibroblasts) | effect on non-cancerous fibroblasts (MRC-5 fibroblasts) | IC50 (MRC-5 fibroblasts) | primary growth inhibitory screen, cell viability, PC-3 (PC-3 cells) | IC50 (PC-3 cells) | primary growth inhibitory screen, cell viability, DU145 (DU145 cells) | IC50 (DU145 cells) | primary growth inhibitory screen, cell viability, MCF-7 (MCF-7 cells) | IC50 (MCF-7 cells) | primary growth inhibitory screen, cell viability, HeLa (HeLa cells) | IC50 (HeLa cells)
Cc1ccc(-n2cc(CO)c(-c3cc4c(cc3O)CCCC4)n2)cc1 [Compound 18b, 3-(4′-(Hydroxymethyl)-1′-(4″-tolyl)-1′H-pyrazol-3-yl)-5,6,7,8-tetrahydro-2-naphthol] | 163 to 165 °C | ≥ 100±2.6 | no or very mild effect | > 7 µM | 99.6±7.7 | > 7 µM | 45.3±2.5 | 2.7 ± 1.1 µM | ≥ 100±5.3 | > 7 µM | ≥ 100±8.7 | > 7 µM
OCc1cn(-c2ccc(Cl)cc2)nc1-c1cc2c(cc1O)CCCC2 [Compound 18c, 3-(1′-(4″-Chlorophenyl)-4′-(hydroxymethyl)-1′H-pyrazol-3′-yl)-5,6,7,8-tetrahydro-2-naphthol] | 154 to 156 °C | ≥ 100±2.3 | – | – | 90.9±3.0 | – | ≥ 100±4.3 | – | ≥ 100±4.7 | – | ≥ 100±6.6 | –
O=c1oc2cc3c(cc2c2nn(-c4ccccc4)cc12)CCCC3 [Compound 19a, 2-Phenyl-7,8,9,10-tetrahydrobenzo[6,7]chromeno[4,3-c]pyrazol-4(2H)-one] | 221 to 223 °C | ≥ 100±3.0 | no or very mild effect | > 7 µM | 95.4±1.3 | 4.7 ± 1 µM | 21.6±0.5 | 1.41 ± 1.1 µM | ≥ 100±3.9 | 6.83 ± 1.1 µM | ≥ 100±8.7 | > 7 µM

Now from value to compound, other results behind:

melting point | Structure (SMILES) | primary growth inhibitory screen, cell viability, MRC-5 (MRC-5 fibroblasts) | effect on non-cancerous fibroblasts (MRC-5 fibroblasts) | IC50 (MRC-5 fibroblasts) | primary growth inhibitory screen, cell viability, PC-3 (PC-3 cells) | IC50 (PC-3 cells) | primary growth inhibitory screen, cell viability, DU145 (DU145 cells) | IC50 (DU145 cells) | primary growth inhibitory screen, cell viability, MCF-7 (MCF-7 cells) | IC50 (MCF-7 cells) | primary growth inhibitory screen, cell viability, HeLa (HeLa cells) | IC50 (HeLa cells)
224 to 226 °C | Cc1ccc(-n2cc3c(=O)oc4cc5c(cc4c3n2)CCCC5)cc1 [Compound 19b, 2-(4′-Tolyl)-7,8,9,10-tetrahydrobenzo[6,7]chromeno[4,3-c]pyrazol-4(2H)-one] | ≥ 100±0 | – | – | 84.1±5.2 | – | 100.6±6.3 | – | ≥ 100±4.8 | – | ≥ 100±2.4 | –
291 to 293 °C | O=c1oc2cc3c(cc2c2nn(-c4ccc(Cl)cc4)cc12)CCCC3 [Compound 19c, 2-(4′-Chlorophenyl)-7,8,9,10-tetrahydrobenzo[6,7]chromeno[4,3-c]pyrazol-4(2H)-one] | ≥ 100±2.5 | – | – | 79.1±7.8 | – | ≥ 100.6±10.8 | – | ≥ 100±3.8 | – | ≥ 100±8.3 | –
